Measurements reported in patent US6706663B2, “Herbicidal 3-heterocyclic substituted benzisothiazole and benzisoxazole compounds” (Wyeth, priority 2000, dated 2004).

Tests used:
[1] = tested on: ABUTH (Abutilon theophrasti); assay: Postemergence herbicidal evaluation; assay type: in vivo, Medic.
How it was run: (§1)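 Seedlings grown about two weeks in flats, sprayed, then kept under standard greenhouse care. Rated visually 4–5 weeks after treatment on a 0–9 scale (stand, vigour, malformation, size, chlorosis, overall appearance) relative to untreated control; repeat tests averaged.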

ZEAMX (Corn, Field) = assay: Postemergence herbicidal evaluation; assay type: in vivo, Zea mays, L.
How it was run: as §1

[2] = tested on: ABUTH (Abutilon theophrasti); assay: Preemergence herbicidal evaluation; assay type: in vivo, Medic.; settings: preemergence, rated 4-5 weeks after treatment
[3] = tested on: AMBEL (Ambrosia artemisifolia); assay: Postemergence herbicidal evaluation; assay type: in vivo, L.
How it was run: as §1

[4] = tested on: CASOB (Cassia obtusifolia); assay: Postemergence herbicidal evaluation; assay type: in vivo, L.
How it was run: as §1

[5] = tested on: CHEAL (Chenopodium album); assay: Postemergence herbicidal evaluation; assay type: in vivo, L.
How it was run: as §1

[6] = tested on: IPOHE (Ipomoea hederacea); assay: Preemergence herbicidal evaluation; assay type: in vivo, (L.) Jacq.; settings: preemergence, rated 4-5 weeks after treatment
[7] = tested on: SAGPY (Sagittaria pygmaea); assay: Flooded paddy, preemergence weed control; assay type: in vivo, L.; settings: rated 3-4 weeks after treatment, 0-9 rating scale
How it was run: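 Scoring used a 0-9 visual scale relative to control. Before that, seeds or propagules were planted shallowly in silt loam and flooded to 1.5–3 cm, a depth maintained throughout, with greenhouse care during the test.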

[8] = tested on: ECHCG (Echinochloa crus-galli); assay: Postemergence herbicidal evaluation; assay type: in vivo, (L.) Beau
How it was run: as §1

[9] = tested on: AMBEL (Ambrosia artemisifolia); assay: Preemergence herbicidal evaluation; assay type: in vivo, L.; settings: preemergence, rated 4-5 weeks after treatment
How it was run: (§2)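 Seeds planted in potting soil cups and sprayed preemergence with aqueous acetone compound solution. Greenhouse-grown; rated 4–5 weeks after treatment on a 0-9 visual scale (stand, vigor, malformation, size, chlorosis, appearance) versus control.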

[10] = tested on: CASOB (Cassia obtusifolia); assay: Preemergence herbicidal evaluation; assay type: in vivo, L.; settings: preemergence, rated 4-5 weeks after treatment
How it was run: as §2

[11] = tested on: CHEAL (Chenopodium album); assay: Preemergence herbicidal evaluation; assay type: in vivo, L.; settings: preemergence, rated 4-5 weeks after treatment
How it was run: as §2

ORYSAT (Rice, Tebonnet) [12] = assay: Postemergence herbicidal evaluation; assay type: in vivo, Oryza sativa, (L.) Tebonnet
How it was run: as §1

GALAP (Galium aparine) [13] = assay: Postemergence herbicidal evaluation; assay type: in vivo
How it was run: as §1

[14] = tested on: GLXMAW (Soybean, Williams); assay: Postemergence herbicidal evaluation; assay type: in vivo, Glycine max, (L.) Merr. cv Williams
How it was run: as §1

GALAP (Galium aparine) [15] = assay: Preemergence herbicidal evaluation; assay type: in vivo; settings: preemergence, rated 4-5 weeks after treatment
How it was run: as §2

ORYSAT (Rice, Tebonnet) [16] = assay: Flooded paddy, post-transplant rice tolerance; assay type: in vivo, Oryza sativa, (L.) Tebonnet; settings: flooded paddy, post-transplant rice, rated 3-4 weeks after treatment, 0-9 rating scale
How it was run: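 Two ten-day-old Tebonnet rice seedlings transplanted into silt loam, then flooded with water held at 1.5–3 cm above soil; herbicide applied post-transplant. Plants kept in greenhouse and rated visually 0–9 versus untreated control for stand, vigor, malformation, size and chlorosis.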

ORYSAT (Rice, Tebonnet) [17] = assay: Preemergence herbicidal evaluation; assay type: in vivo, Oryza sativa, (L.) Tebonnet; settings: preemergence, rated 4-5 weeks after treatment
[18] = tested on: CYPSE (Cyperus serotinus); assay: Flooded paddy, preemergence weed control; assay type: in vivo, Rottb.; settings: rated 3-4 weeks after treatment, 0-9 rating scale
How it was run: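 Seeds or propagules were planted 0.5 cm deep in silt loam and flooded to 1.5–3 cm. Compounds in 50/50 v/v aqueous/acetone were pipetted into the flood water at about 0.0080 to 0.1250 kg/ha. After 3–4 weeks in the greenhouse, effect was rated visually on a 0–9 scale versus untreated control.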

[19] = tested on: TRZAWR (Wheat, Winter, cv Riband); assay: Preemergence herbicidal evaluation; assay type: in vivo, Triticum aestivum; settings: preemergence, rated 4-5 weeks after treatment
How it was run: as §2

Cn1c(C(F)(F)F)cc(=O)n(-c2ccc3snc(-c4ncccn4)c3c2)c1=O [Compound 12, 1-methyl-3-[3-(2-pyrimidinyl)-1,2-benzisothiazol-5-yl]-6-(trifluoromethyl)uracil]
Postemergence herbicidal rating, ABUTH ([1]; rate 0.0620 kg/ha): 9.0 | Postemergence herbicidal rating, ZEAMX (ZEAMX (Corn, Field); rate 0.0620 kg/ha): 5.5 | ABUTH preemergence herbicidal rating ([2]; Rate 0.2500 kg/ha): 9.0 | Postemergence herbicidal rating, AMBEL ([3]; rate 0.0620 kg/ha): 9.0 | Postemergence herbicidal rating, CASOB ([4]; rate 0.0620 kg/ha): 9.0 | Postemergence herbicidal rating, CHEAL ([5]; rate 0.0620 kg/ha): 9.0 | IPOHE preemergence herbicidal rating ([6]; Rate 0.2500 kg/ha): 9.0 | herbicidal rating, SAGPY ([7]; rate 0.1250 kg/ha): 3.7 | Postemergence herbicidal rating, ECHCG ([8]; rate 0.0620 kg/ha): 4.0 | AMBEL preemergence herbicidal rating ([9]; Rate 0.2500 kg/ha): 9.0 | CASOB preemergence herbicidal rating ([10]; Rate 0.2500 kg/ha): 8.5 | CHEAL preemergence herbicidal rating ([11]; Rate 0.2500 kg/ha): 9.0 | Postemergence herbicidal rating, ORYSAT (ORYSAT (Rice, Tebonnet) [12]; rate 0.0620 kg/ha): 6.0 | Postemergence herbicidal rating, GALAP (GALAP (Galium aparine) [13]; rate 0.0620 kg/ha): 9.0 | Postemergence herbicidal rating, GLXMAW ([14]; rate 0.0620 kg/ha): 8.5 | GALAP preemergence herbicidal rating (GALAP (Galium aparine) [15]; Rate 0.2500 kg/ha): 9.0 | herbicidal rating, ORYSAT (rice tolerance) (ORYSAT (Rice, Tebonnet) [16]; rate 0.1250 kg/ha): 7.0 | ORYSAT preemergence herbicidal rating (ORYSAT (Rice, Tebonnet) [17]; Rate 0.2500 kg/ha): 8.5 | herbicidal rating, CYPSE ([18]; rate 0.1250 kg/ha): 7.0 | TRZAWR preemergence herbicidal rating ([19]; Rate 0.2500 kg/ha): 9.0

Cc1nnc(-c2nsc3ccc(-n4c(=O)cc(C(F)(F)F)n(C)c4=O)cc23)s1 [Compound 17, 1-methyl-3-[3-(5-methyl-1,3,4-thiadiazol-2-yl)-1,2-benzisothiazol-5-yl]-6-(trifluoromethyl)uracil]
Postemergence herbicidal rating, ABUTH ([1]; rate 0.0320 kg/ha): 9.0 | Postemergence herbicidal rating, ABUTH ([1]; rate 0.0620 kg/ha): 9.0 | Postemergence herbicidal rating, ABUTH ([1]; rate 0.1250 kg/ha): 9.0 | Postemergence herbicidal rating, ABUTH ([1]; rate 0.2500 kg/ha): 9.0 | Postemergence herbicidal rating, ZEAMX (ZEAMX (Corn, Field); rate 0.0320 kg/ha): 4.0 | Postemergence herbicidal rating, ZEAMX (ZEAMX (Corn, Field); rate 0.0620 kg/ha): 4.0 | Postemergence herbicidal rating, ZEAMX (ZEAMX (Corn, Field); rate 0.1250 kg/ha): 4.0 | Postemergence herbicidal rating, ZEAMX (ZEAMX (Corn, Field); rate 0.2500 kg/ha): 5.0 | ABUTH preemergence herbicidal rating ([2]; Rate 0.0620 kg/ha): 9.0 | ABUTH preemergence herbicidal rating ([2]; Rate 0.1250 kg/ha): 9.0 | ABUTH preemergence herbicidal rating ([2]; Rate 0.2500 kg/ha): 9.0 | Postemergence herbicidal rating, AMBEL ([3]; rate 0.0320 kg/ha): 4.0 | Postemergence herbicidal rating, AMBEL ([3]; rate 0.0620 kg/ha): 9.0 | Postemergence herbicidal rating, AMBEL ([3]; rate 0.1250 kg/ha): 9.0 | Postemergence herbicidal rating, AMBEL ([3]; rate 0.2500 kg/ha): 9.0 | Postemergence herbicidal rating, CASOB ([4]; rate 0.0320 kg/ha): 0.0 | Postemergence herbicidal rating, CASOB ([4]; rate 0.0620 kg/ha): 0.0 | Postemergence herbicidal rating, CASOB ([4]; rate 0.1250 kg/ha): 2.0 | Postemergence herbicidal rating, CASOB ([4]; rate 0.2500 kg/ha): 2.0 | Postemergence herbicidal rating, CHEAL ([5]; rate 0.0320 kg/ha): 3.0 | Postemergence herbicidal rating, CHEAL ([5]; rate 0.0620 kg/ha): 3.0 | Postemergence herbicidal rating, CHEAL ([5]; rate 0.1250 kg/ha): 4.0 | Postemergence herbicidal rating, CHEAL ([5]; rate 0.2500 kg/ha): 9.0 | IPOHE preemergence herbicidal rating ([6]; Rate 0.0620 kg/ha): 0.0 | IPOHE preemergence herbicidal rating ([6]; Rate 0.1250 kg/ha): 2.0 | IPOHE preemergence herbicidal rating ([6]; Rate 0.2500 kg/ha): 9.0 | herbicidal rating, SAGPY ([7]; rate 0.0080 kg/ha): 0.0 | herbicidal rating, SAGPY ([7]; rate 0.0320 kg/ha): 2.5 | herbicidal rating, SAGPY ([7]; rate 0.1250 kg/ha): 5.5 | Postemergence herbicidal rating, ECHCG ([8]; rate 0.0320 kg/ha): 0.0 | Postemergence herbicidal rating, ECHCG ([8]; rate 0.0620 kg/ha): 0.0 | Postemergence herbicidal rating, ECHCG ([8]; rate 0.1250 kg/ha): 0.0 | Postemergence herbicidal rating, ECHCG ([8]; rate 0.2500 kg/ha): 0.0 | AMBEL preemergence herbicidal rating ([9]; Rate 0.0620 kg/ha): 4.0 | AMBEL preemergence herbicidal rating ([9]; Rate 0.1250 kg/ha): 5.0 | AMBEL preemergence herbicidal rating ([9]; Rate 0.2500 kg/ha): 9.0 | CASOB preemergence herbicidal rating ([10]; Rate 0.0620 kg/ha): 0.0 | CASOB preemergence herbicidal rating ([10]; Rate 0.1250 kg/ha): 0.0 | CASOB preemergence herbicidal rating ([10]; Rate 0.2500 kg/ha): 3.0 | CHEAL preemergence herbicidal rating ([11]; Rate 0.0620 kg/ha): 9.0 | CHEAL preemergence herbicidal rating ([11]; Rate 0.1250 kg/ha): 9.0 | CHEAL preemergence herbicidal rating ([11]; Rate 0.2500 kg/ha): 9.0 | Postemergence herbicidal rating, ORYSAT (ORYSAT (Rice, Tebonnet) [12]; rate 0.0320 kg/ha): 1.0 | Postemergence herbicidal rating, ORYSAT (ORYSAT (Rice, Tebonnet) [12]; rate 0.0620 kg/ha): 1.5 | Postemergence herbicidal rating, ORYSAT (ORYSAT (Rice, Tebonnet) [12]; rate 0.1250 kg/ha): 2.0 | Postemergence herbicidal rating, ORYSAT (ORYSAT (Rice, Tebonnet) [12]; rate 0.2500 kg/ha): 7.5 | Postemergence herbicidal rating, GALAP (GALAP (Galium aparine) [13]; rate 0.0320 kg/ha): 1.0 | Postemergence herbicidal rating, GALAP (GALAP (Galium aparine) [13]; rate 0.0620 kg/ha): 1.0 | Postemergence herbicidal rating, GALAP (GALAP (Galium aparine) [13]; rate 0.1250 kg/ha): 6.0 | Postemergence herbicidal rating, GALAP (GALAP (Galium aparine) [13]; rate 0.2500 kg/ha): 6.0 | Postemergence herbicidal rating, GLXMAW ([14]; rate 0.0320 kg/ha): 5.0 | Postemergence herbicidal rating, GLXMAW ([14]; rate 0.0620 kg/ha): 6.5 | Postemergence herbicidal rating, GLXMAW ([14]; rate 0.1250 kg/ha): 8.0 | Postemergence herbicidal rating, GLXMAW ([14]; rate 0.2500 kg/ha): 8.5 | GALAP preemergence herbicidal rating (GALAP (Galium aparine) [15]; Rate 0.0620 kg/ha): 7.0 | GALAP preemergence herbicidal rating (GALAP (Galium aparine) [15]; Rate 0.1250 kg/ha): 9.0 | GALAP preemergence herbicidal rating (GALAP (Galium aparine) [15]; Rate 0.2500 kg/ha): 9.0 | herbicidal rating, ORYSAT (rice tolerance) (ORYSAT (Rice, Tebonnet) [16]; rate 0.0080 kg/ha): 0.0 | herbicidal rating, ORYSAT (rice tolerance) (ORYSAT (Rice, Tebonnet) [16]; rate 0.0320 kg/ha): 2.5 | herbicidal rating, ORYSAT (rice tolerance) (ORYSAT (Rice, Tebonnet) [16]; rate 0.1250 kg/ha): 4.5 | ORYSAT preemergence herbicidal rating (ORYSAT (Rice, Tebonnet) [17]; Rate 0.0620 kg/ha): 0.0 | ORYSAT preemergence herbicidal rating (ORYSAT (Rice, Tebonnet) [17]; Rate 0.1250 kg/ha): 0.0 | ORYSAT preemergence herbicidal rating (ORYSAT (Rice, Tebonnet) [17]; Rate 0.2500 kg/ha): 1.0 | herbicidal rating, CYPSE ([18]; rate 0.0080 kg/ha): 0.0 | herbicidal rating, CYPSE ([18]; rate 0.0320 kg/ha): 3.0 | herbicidal rating, CYPSE ([18]; rate 0.1250 kg/ha): 4.5 | TRZAWR preemergence herbicidal rating ([19]; Rate 0.0620 kg/ha): 0.0 | TRZAWR preemergence herbicidal rating ([19]; Rate 0.1250 kg/ha): 0.0 | TRZAWR preemergence herbicidal rating ([19]; Rate 0.2500 kg/ha): 5.0
